# Laboratory results taken from patent US9795644B2, “Reduction of in vitro genotoxicity of pollen extracts by removal of flavonoids” (STALLERGENES, priority 2009, dated 2017).
# Experiments:
# [1] = incubation at 37° C. under MLA/TK conditions, deglycosylation followed by reverse phase HPLC; type: physicochemical; settings: 24 h at 37° C., in presence of grass pollen proteins; from peak areas
# Method: Grass pollen flavonoids were first identified by reverse phase HPLC, according to their hydrophobicity. Reverse phase HPLC was performed on a Atlantis dC18 column, 4.6×250 mm, 5 μm, Waters, Milford, Mass., USA; with a gradient elution: 0.1% formic acid qsp water to 0.1% formic acid qsp acetonitrile in 30 min; flow rate: 1 mL/min; run time: 45 min; detection wavelength: 354 or 254 nm; injection volume 50 μL. Importantly, grass pollen extracts were diluted 5 times in methanol before analysis in order to solubilize both flavonoid glycosides and flavonoid aglycones, the latter being hardly soluble in water.
# Analysis of samples was performed using the HPLC method described above for the detection of flavonoids.
# As (a) the sum of all peaks areas was rather well conserved and (b) the decrease of a flavonoid diglucoside-corresponding peak was related to the increase or appearance of flavonoid monoglycoside and/or aglycone-corresponding peak(s), it could be considered that the ratio between the two peaks areas is equivalent to the molar ratio of the corresponding flavonoids. On this basis, the decrease in quercetin-diglucoside leaded to an equal increase in molecules of quercetin-monoglucoside and in molecules of quercetin aglycone.
# [2] = tested on: mouse lymphoma thymidine kinase gene mutation; assay: MLA/TK test of quercetin by Meltz and MacGregor (4-h short term protocol), modelled by equation (2); type: cell-based; settings: quercetin 0.83-0.86 μg/mL; from data of Meltz and MacGregor
# Method: To our knowledge, quercetin is the only flavonoid aglycone that was studied in the MLA/TK test, namely in a work by Meltz and MacGregor who used a 4-h short term protocol (Mutat. Res. 1981; 88: 317-324).
# The induction ratios that should result from those amounts was deduced from the data of Meltz and MacGregor. Such deduced induction ratios were then compared to the induction ratio actually observed.
# The lowest concentration of quercetin tested by Meltz and MacGregor was 10 μg/mL. Therefore, to determine the ratio that should be obtained with the lowest concentration of 0.864 μg/mL or below, the relationship between (a) the concentrations of quercetin tested by Meltz and MacGregor and (b) the corresponding induction ratios they observed was mathematically modelled. Since those ratios started reaching a plateau at the first concentration tested, we choose to use a logarithmic function for such a modelization. Given that the ratio is necessarily of 1 for 0 μg/mL of mutagen (control), the logarithmic function will be of the form: y=a·ln(x+1)+1 (1)
# Using the ratios obtained by Meltz and MacGregor for 10, 20 and 30 μg/mL of quercetin allows a mathematical modelization by the following equation with an excellent correlation coefficient (r=0.99): y=3.0822×ln(x+1)+1 (2).
# [3] = other in vitro genotoxic tests; cited from earlier work
share deglycosylated into quercetin (aglycone) [1],induction ratio interpolated with equation (2) [2],SMILES,genotoxicity rank among flavonoid aglycones [3]
~20%,,"O=c1c(O[C@@H]2O[C@H](CO)[C@@H](O)[C@H](O)[C@H]2O)c(-c2ccc(O[C@@H]3O[C@H](CO)[C@@H](O)[C@H](O)[C@H]3O)c(O)c2)oc2cc(O)cc(O)c12 [quercetin-diglucoside, quercetin-3,4′-diglucoside]",
,2.9,O=c1c(O)c(-c2ccc(O)c(O)c2)oc2cc(O)cc(O)c12 [quercetin],the most genotoxic flavonoid aglycone
